The text below walks through data of patent US8710233B2 (Gruenenthal GmbH, priority 2005, dated 2014).

“And” between values parts separate entries of the source, which are not always exact repeats. Equal entries are not always repeated. Where two headings read alike, the source gives them in different places.

For data set [1], the target named is T1, vanilloid receptor 1 (VR1/TRPV1) of the rat species (Rattus norvegicus, UniProt O35433).
T1 construct: The spinal column is removed from decapitated rats; from tissue; host or cells: primary cells dissociated from rat dorsal root ganglia
T1 sequence (O35433 whole entry): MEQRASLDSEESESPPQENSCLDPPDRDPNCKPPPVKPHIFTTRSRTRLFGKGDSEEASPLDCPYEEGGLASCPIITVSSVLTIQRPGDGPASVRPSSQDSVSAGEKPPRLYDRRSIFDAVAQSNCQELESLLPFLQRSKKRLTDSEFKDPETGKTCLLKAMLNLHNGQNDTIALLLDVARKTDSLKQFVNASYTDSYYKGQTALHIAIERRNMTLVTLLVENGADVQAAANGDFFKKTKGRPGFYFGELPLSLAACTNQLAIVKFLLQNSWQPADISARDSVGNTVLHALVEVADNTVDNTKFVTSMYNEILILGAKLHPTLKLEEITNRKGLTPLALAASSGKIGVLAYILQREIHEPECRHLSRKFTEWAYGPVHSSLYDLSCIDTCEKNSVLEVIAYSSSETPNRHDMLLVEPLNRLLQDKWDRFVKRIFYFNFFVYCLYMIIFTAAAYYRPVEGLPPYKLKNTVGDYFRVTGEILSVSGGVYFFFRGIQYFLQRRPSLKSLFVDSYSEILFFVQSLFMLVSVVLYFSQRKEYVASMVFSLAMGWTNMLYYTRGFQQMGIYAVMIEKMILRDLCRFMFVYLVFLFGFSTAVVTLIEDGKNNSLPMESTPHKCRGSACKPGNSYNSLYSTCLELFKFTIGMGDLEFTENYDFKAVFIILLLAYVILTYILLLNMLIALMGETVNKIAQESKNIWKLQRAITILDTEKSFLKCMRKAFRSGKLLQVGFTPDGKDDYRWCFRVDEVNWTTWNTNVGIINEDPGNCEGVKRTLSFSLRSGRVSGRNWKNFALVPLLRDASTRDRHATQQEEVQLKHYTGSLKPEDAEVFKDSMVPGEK
In words: FLIPR Ca2+ influx assay on rat dorsal root ganglia cells (pharmacological method I). To be noted: for inhibition at 1 µM / inhibition in percent, Ki (rat) Cap.: ne = no effect, @ 1 μM. Format: cell-based. The method in brief: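 Primary rat dorsal root ganglion cells loaded with 2 μM Fluo-4, Ca2+ influx read on FLIPR as peak fluorescence. Triplicates, at least 3 independent experiments.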

For data set [2], the target named is T2, vanilloid receptor (VR1) (Homo sapiens, UniProt Q8NER1).
T2 construct: expressed in transfected cells; host or cells: CHO K1 cells (ECACC), stably transfected
T2 sequence (Q8NER1 whole entry): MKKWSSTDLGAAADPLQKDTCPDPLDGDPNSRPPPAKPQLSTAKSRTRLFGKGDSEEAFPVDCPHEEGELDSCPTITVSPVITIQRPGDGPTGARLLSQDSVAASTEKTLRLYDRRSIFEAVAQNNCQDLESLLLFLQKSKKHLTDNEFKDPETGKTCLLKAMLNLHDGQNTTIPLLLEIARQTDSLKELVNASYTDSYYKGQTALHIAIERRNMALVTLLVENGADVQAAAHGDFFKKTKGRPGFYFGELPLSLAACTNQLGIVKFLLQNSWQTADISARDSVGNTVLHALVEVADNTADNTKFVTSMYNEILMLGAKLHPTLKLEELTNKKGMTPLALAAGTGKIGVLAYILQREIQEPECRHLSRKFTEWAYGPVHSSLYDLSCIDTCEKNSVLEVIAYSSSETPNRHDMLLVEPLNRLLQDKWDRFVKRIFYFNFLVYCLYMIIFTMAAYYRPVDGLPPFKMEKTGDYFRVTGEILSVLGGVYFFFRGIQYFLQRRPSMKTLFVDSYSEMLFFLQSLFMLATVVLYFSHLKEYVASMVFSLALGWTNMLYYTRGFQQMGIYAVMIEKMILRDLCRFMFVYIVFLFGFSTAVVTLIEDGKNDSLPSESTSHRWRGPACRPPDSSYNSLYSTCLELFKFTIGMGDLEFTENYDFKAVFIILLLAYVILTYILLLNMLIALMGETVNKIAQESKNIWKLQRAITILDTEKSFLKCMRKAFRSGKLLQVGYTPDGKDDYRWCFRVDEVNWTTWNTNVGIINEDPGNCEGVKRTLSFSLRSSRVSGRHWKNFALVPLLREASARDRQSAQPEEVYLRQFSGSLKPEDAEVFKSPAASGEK
Put plainly: FLIPR Ca2+ influx assay on CHO K1 cells transfected with the VR1 gene (pharmacological method II). Format: cell-based.

In data set [3] the target is VR1/TRPV1 receptor (Homo sapiens, UniProt Q8NER1). Put plainly: IC50 (human) after pH stimulus. The format is cell-based.
VR1/TRPV1 receptor, sequence (Q8NER1 whole entry): as above
In data set [4] the target is T2, vanilloid receptor (VR1). In words: FLIPR Ca2+ influx assay on CHO K1 cells transfected with the VR1 gene (pharmacological method II). The format is cell-based. The following applies: for inhibition at 1 µM / inhibition in percent, Ki (human) Cap.: ne = no effect, @ 1 μM.
Data set [5] deals with formaldehyde induced nociceptive behaviour. Put plainly: Formaldehyde test in mice, second (late) phase. The following applies: 0.3 mg/kg body weight po; mouse; read-out: inhibition formaldehyde test (n = 10). Format: in vivo, mouse.
Data set [6] concerns capsaicin induced hypothermie. In words: Hypothermie assay in the mouse (capsaicin induced hypothermie). The format is in vivo. To be noted: 0.3 mg/kg body weight po; mouse; read-out: inhibition hypothermie (n = 5).
For data set [7], the system named is cold allodynia after chronic constriction injury. In words: Neuropathic pain in mice, Bennet model (chronic constriction injury, cold allodynia). Format: in vivo. To be noted: mouse. From the text:
VI. Neuropathic Pain in Mice
The efficacy of compounds of general formula I in the treatment of neuropathic pain is investigated by using the Bennet modell (chronic constriction injury; Bennett and Xie, 1988, Pain 33: 87-107.
NMRI mice (weight 16 to 18 g) under ketavet-rompun anaesthesia are supplied with three loose ligatures of the right nervus ischiaticus. The animals develop an oversensitivity to cold at the position of the pad that is innervated by the injured nerve which—after a recovery period of one week—is quantified over a period of three weeks by using a metal plate that is cooled to 4° C. (cold allodynia). The animals are observed for a period of 2 minutes on this plate and the number of brisk withdrawal reactions of the injured nerve is counted. […] The group size is n=10, the stastical significance of efficacy against allodynia (*=p<0.05) is determined by analysis of variance with repeated measurements and post hoc analysis with Bonferroni adjustment.

[8] abbreviates: Table 2, displacement of capsaicin (100 nM), Cheng-Prusoff, read-out: Ki (rat).
Where [9] appears, read: Table 2, displacement of capsaicin (100 nM), Cheng-Prusoff, read-out: Ki (human).
Setting [10] is: read-out: inhibition in percent, Ki (rat) Cap.
Where [11] appears, read: CHO-K1, read-out: inhibition in percent, Ki (human) Cap.
The mark [12] stands for this setting: @ 10 μM, read-out: inhibition in percent, IC50 (human) after pH stimulus.
[13] abbreviates: read-out: inhibition in percent, IC50 (human) after pH stimulus.
Where [14] appears, read: table 4, capsaicin, read-out: Ki (human) Cap.
Setting [15] is: table 4, capsaicin, read-out: Ki (rat) Cap.

The compound `CC(C(=O)NCc1ccc(C(F)(F)F)cc1N1CCCCC1)c1ccc(NS(C)(=O)=O)c(F)c1` (centres unmarked) [Example 3] showed a melting point of 126 to 127 °C. Further, the Ki in data set [1] (setting [8]) worked out at 2.6 nM. Also, the Ki in data set [2] (setting [9]) was 1.7 nM. This compound returned an IC50 in data set [3] (Table 2) of 135 nM.

Consider `CC(C(=O)NCc1c(CO)cc(C(C)(C)C)nc1OCc1ccccc1)c1ccc(NS(C)(=O)=O)c(F)c1` (centres unmarked) [Example 223, N-(2-benzyloxy-6-tert-butyl-4-hydroxymethyl-pyridin-3-ylmethyl)-2-(3-fluoro-4-methylsulfonamido-phenyl)-propionamide], for which the inhibition at 1 µM in data set [1] (setting [10]) was found to be 53%; in data set [4] (setting [11]), 38%. For the same compound, the “inhibition in percent, IC50 (human) after pH stimulus” value (from here on “inhibition in percent, IC50 (human)”) in data set [3] (@ 1 μM, ne = no effect) was “ne @ 1 μM”.

`CC(C(=O)NCc1ncc(C(F)(F)F)cc1N1CCCC1)c1ccc(NS(C)(=O)=O)c(F)c1` (centres unmarked) [Example 78, 2-(3-Fluor-4-(methylsulfonamido)phenyl)-N-((3-(pyrrolidin-1-yl)-5-(trifluoromethyl)pyridin-2-yl)methyl)propanamide]: the “inhibition in percent, Ki (rat) Cap.” value in data set [1] was found to be 19% @ 1 μM. Besides, the “inhibition in percent, Ki (human) Cap.” value in data set [4] is recorded as 15% @ 1 μM. The “inhibition in percent, IC50 (human)” value in data set [3] (@ 10 μM) amounted to 36% @ 10 μM.

On to `CC(C(=O)NCc1ccc(C(F)(F)F)nc1N1CCC(N2CCCC2)CC1)c1ccc(NS(C)(=O)=O)c(F)c1` (centres unmarked) [Example 165, 2-(3-fluoro-4-methylsulfonamido-phenyl)-N-(4-pyrrolidin-1-yl-6′-trifluoromethyl-3,4,5,6-tetrahydro-2H-[1,2′]bipyridinyl-3′-ylmethyl)-propionamide], for which the inhibition at 25 µM worked out at 82% in data set [1] (@ 25 μM, read-out: inhibition in percent, Ki (rat) Cap.); 76% in data set [4] (CHO-K1, @ 25 μM, read-out: inhibition in percent, Ki (human) Cap.); 40% in data set [3] (setting [13]). The inhibition in vivo at 0.3 mg/kg stood at 29% in data set [5] and 41% in data set [6]. In data set [3] (setting [12]), the inhibition at 10 µM worked out at 28%.

For `CCCCCCOc1nc(C(F)(F)F)ccc1CNC(=O)C(C)c1ccc(NS(C)(=O)=O)c(F)c1` (centres unmarked) [Example 91, 2-(3-fluoro-4-methylsulfonamido-phenyl)-N-(2-hexyloxy-6-trifluoromethyl-pyridin-3-ylmethyl)-propionamide], the inhibition constant (Ki) in data set [1] (Ki (rat) Cap., table 4, capsaicin) was determined as 0.5 nM; in data set [2] (setting [14]) it was 0.5 nM. Also, the IC50 in data set [3] (table 4) came to 29.9 nM. In data set [7] (0.1 mg/kg body weight po), the “inhibition Bennet model (n = 10)” value came to 0.1 po 30%.

As for `CC(C(=O)NCc1ccc(C(F)(F)F)nc1N1CCN(c2ccncc2)CC1)c1ccc(NS(C)(=O)=O)c(F)c1` (centres unmarked) [Compound 176], the inhibition at 1 µM in data set [1] (setting [10]) came to 8%; in data set [4] (setting [11]) it was 7.2%.

Consider `CC(C(=O)NCc1ccc(C(F)(F)F)nc1N1CCC(N2CCCCC2)CC1)c1ccc(NS(C)(=O)=O)c(F)c1` (centres unmarked) [Compound 164], for which the figures for the inhibition at 1 µM in data set [1] (setting [10]) and in data set [4] (setting [11]) were 1.5% and 20%, respectively.

`CC(C(=O)NCc1ccc(C(F)(F)F)nc1N1CCC(Cc2ccccc2)CC1)c1ccc(NS(C)(=O)=O)c(F)c1` (centres unmarked) [Example 104, N-(4-benzyl-6′-trifluoromethyl-3,4,5,6-tetrahydro-2H-[1,2′]bipyridinyl-3′-ylmethyl)-2-(3-fluoro-4-methylsulfonamido-phenyl)-propionamide]: the inhibition constant Ki in data set [1] (setting [15]) and in data set [2] (setting [14]) was 0.2 nM each time. In data set [3] (table 4), this compound showed an IC50 of 40 nM. Besides, in data set [7] (0.0001 mg/kg body weight po), the “inhibition Bennet model (n = 10)” value turned out to be 0.0001 po 20%.

`CC(C(=O)NCc1ccc(C(F)(F)F)nc1Nc1ccc(F)cc1)c1ccc(NS(C)(=O)=O)c(F)c1` (centres unmarked) [Example 112, 2-(3-fluoro-4-methylsulfonamido-phenyl)-N-[2-(4-fluoro-phenylamino)-6-trifluoromethyl-pyridin-3-ylmethyl]-propionamide]: the Ki was 31.8 nM and 236 nM in data set [1] (setting [15]); 39.2 nM in data set [2] (setting [14]). Moreover, the inhibition at 1 µM in data set [4] (setting [11]) worked out at 15%. In addition, the “inhibition in percent, IC50 (human)” value in data set [3] (@ 10 μM) came to 64% @ 10 μM. Further, the inhibition at 25 µM in data set [3] (setting [13]) worked out at 67%.

In the case of `CC(C(=O)NCc1ccc(C(F)(F)F)cc1[N+](=O)[O-])c1ccc(NS(C)(=O)=O)c(F)c1` (centres unmarked) [Example 62, 2-(3-fluoro-4-(methylsulfonamido)phenyl)-N-(2-nitro-4-(trifluoromethyl)-benzyl)propanamide], in data set [1], the “inhibition in percent, Ki (rat) Cap.” value is “ne @ 1 μM”. Also, the “inhibition in percent, Ki (human) Cap.” value in data set [4] was “ne @ 1 μM”. In data set [3] (@ 1 μM, ne = no effect), the “inhibition in percent, IC50 (human)” value is “ne @ 1 μM”.

For the compound `CC(C(=O)NCc1ccc(C(F)(F)F)nc1N1CCCCC1)c1ccc(NS(C)(=O)=O)c(F)c1` (centres unmarked) [Example 2, 2-(3-fluoro-4-(methylsulfonamido)phenyl)-N-((2-(piperidin-1-yl)-6-(trifluoromethyl)pyridin-3-yl)methyl)propanamide], the melting point lay in the range of 75 to 79 °C. The Ki in data set [1] (setting [8]) was found to be 3.5 nM. For the same compound, the Ki in data set [2] (setting [9]) was 0.4 nM. Further, the midpoint of inhibition in data set [3] (Table 2), the IC50, lay at 218 nM.

On to `C[C@H](C(=O)NCc1ccc(C(F)(F)F)nc1N1CCCCC1)c1ccc(NS(C)(=O)=O)c(F)c1` [Example 10, (S)-2-(3-fluoro-4-(methylsulfonamido)phenyl)-N-((2-(piperidin-1-yl)-6-(trifluoromethyl)pyridin-3-yl)methyl)propanamide], for which the melting point lay within 75 to 79 °C. In addition, in data set [1] (setting [8]), the Ki worked out at 1.1 nM. Moreover, the Ki in data set [2] (setting [9]) turned out to be 0.3 nM. The same compound returned an IC50 in data set [3] (Table 2) of 64 nM.

As for `CC(C(=O)NCc1ccc(C(F)(F)F)nc1N1CCC(O)CC1)c1ccc(NS(C)(=O)=O)c(F)c1` (centres unmarked) [Example 269, 2-(3-fluoro-4-methylsulfonamido-phenyl)-N-(4-hydroxy-6′-trifluoromethyl-3,4,5,6-tetrahydro-2H-[1,2′]bipyridinyl-3′-ylmethyl)-propionamide], in data set [1], the “inhibition in percent, Ki (rat) Cap.” value was “ne @ 1 μM”. Besides, in data set [4], the “inhibition in percent, Ki (human) Cap.” value is given as “ne @ 1 μM”. In addition, in data set [3] (@ 1 μM, ne = no effect), the “inhibition in percent, IC50 (human)” value is “ne @ 1 μM”.

`CC1CCN(c2nc(C(F)(F)F)ccc2CNC(=O)C(C)c2ccc(NS(=O)(=O)C(F)(F)F)c(F)c2)CC1` (centres unmarked) [Example 312, 2-(3-fluoro-4-trifluoromethylsulfonamido-phenyl)-N-(4-methyl-6′-trifluoromethyl-3,4,5,6-tetrahydro-2H-[1,2′]bipyridinyl-3′-ylmethyl)-propionamide]: the inhibition at 5 µM in data set [4] (setting [11]) was determined as 68%. The “inhibition in percent, IC50 (human)” value in data set [3] (@ 1 μM, ne = no effect) is “ne @ 1 μM”.

In the case of `CC(C(=O)NCc1ccc(C(F)(F)F)nc1-c1ccc2[nH]ccc2c1)c1ccc(NS(C)(=O)=O)c(F)c1` (centres unmarked) [Example 276, 2-(3-fluoro-4-methylsulfonamido-phenyl)-N-[2-(1H-indol-5-yl)-6-trifluoromethyl-pyridin-3-ylmethyl]-propionamide], the inhibition at 5 µM worked out at 78% in data set [4] (setting [11]) and 43% in data set [3] (@ 5 μM, read-out: inhibition in percent, IC50 (human) after pH stimulus). Further, in data set [3] (@ 0.1 μM, read-out: inhibition in percent, IC50 (human) after pH stimulus), the inhibition at 0.1 µM turned out to be 11%. Besides, in data set [3] (@ 1 μM, ne = no effect, read-out: inhibition in percent, IC50 (human) after pH stimulus), the inhibition at 1 µM is 11%.

With `Cc1nc(C(F)(F)F)ccc1CNC(=O)C(C)c1ccc(NS(C)(=O)=O)c(F)c1` (centres unmarked) [Example 1, 2-(3-fluoro-4-(methylsulfonamido)phenyl)-N-((2-methyl-6-(trifluoromethyl)pyridin-3-yl)methyl)propanamide], the melting point lay in the range of 149 to 152 °C. In data set [1] (setting [8]), the Ki is 684 nM. Also, the inhibitory constant (Ki) in data set [2] (setting [9]) is 387 nM.

Consider `CC(C(=O)NCc1ccc(C(F)(F)F)cc1N)c1ccc(NS(C)(=O)=O)c(F)c1` (centres unmarked) [Example 61, N-(2-amino-4-(trifluoromethyl)benzyl)-2-(3-fluoro-4-(methylsulfonamido)-phenyl)propanamide], for which the “inhibition in percent, Ki (rat) Cap.” value in data set [1] is reported as “ne @ 1 μM”. Further, the “inhibition in percent, Ki (human) Cap.” value in data set [4] was “ne @ 1 μM”. In addition, the inhibition at 10 µM in data set [3] (setting [12]) is 47%.

Usually melting point stands for the temperature, or range, at which the solid turns liquid. In general, Ki refers to the dissociation constant of the complex between target and ligand, obtained from inhibition or displacement. As usually defined, the IC50 is the concentration that gives 50% inhibition. By inhibition is commonly meant the relative decrease from the control value, in per cent.
